Activity calls are given as the source filed them. The rule behind the calls is not given here.
System: CCRIS mutagenicity, Ames/micronucleus/aberration tests
Test: CCRIS mutagenicity studies
[1] = Test System: AMES SALMONELLA TYPHIMURIUM, Strain/Indicator: TA100, Metabolic Activation: NONE, Method: STANDARD PLATE
[2] = Test System: AMES SALMONELLA TYPHIMURIUM, Strain/Indicator: TA1535, Metabolic Activation: NONE, Method: STANDARD PLATE

CC(C)(OO)c1ccccc1
mutagenic call (Test System: AMES SALMONELLA TYPHIMURIUM, Strain/Indicator: TA97A, Metabolic Activation: RAT LIVER S-9, AROCLOR 1254, Method: PREINCUBATION): active; positive | mutagenic call (Test System: AMES SALMONELLA TYPHIMURIUM, Strain/Indicator: TA98, Metabolic Activation: NONE, Method: FLUCTUATION (MICROTITER)): active; positive | mutagenic call (Test System: AMES SALMONELLA TYPHIMURIUM, Strain/Indicator: TA98, Metabolic Activation: RAT LIVER S-9, AROCLOR 1254, Method: FLUCTUATION (MICROTITER)): inactive; negative | mutagenic call (Test System: AMES SALMONELLA TYPHIMURIUM, Strain/Indicator: TA104, Metabolic Activation: RAT LIVER S-9, AROCLOR 1254, Method: PREINCUBATION): active; positive | mutagenic call (Test System: AMES SALMONELLA TYPHIMURIUM, Strain/Indicator: TA1537, Metabolic Activation: NONE, Method: FLUCTUATION (MICROTITER)): active; positive | mutagenic call (Test System: AMES SALMONELLA TYPHIMURIUM, Strain/Indicator: TA1537, Metabolic Activation: RAT LIVER S-9, AROCLOR 1254, Method: FLUCTUATION (MICROTITER): active; positive | mutagenic call (Test System: AMES SALMONELLA TYPHIMURIUM, Strain/Indicator: TA2638A, Metabolic Activation: NONE, Method: STANDARD PLATE): active; positive | mutagenic call (Test System: AMES SALMONELLA TYPHIMURIUM, Strain/Indicator: TA7001, Metabolic Activation: NONE, Method: FLUCTUATION (MICROTITER)): inactive; negative | mutagenic call (Test System: AMES SALMONELLA TYPHIMURIUM, Strain/Indicator: TA7001, Metabolic Activation: RAT LIVER S-9, AROCLOR 1254, Method: FLUCTUATION (MICROTITER)): active; positive | mutagenic call (Test System: AMES SALMONELLA TYPHIMURIUM, Strain/Indicator: TA7002, Metabolic Activation: NONE, Method: FLUCTUATION (MICROTITER)): active; positive | mutagenic call (Test System: AMES SALMONELLA TYPHIMURIUM, Strain/Indicator: TA7002, Metabolic Activation: RAT LIVER S-9, AROCLOR 1254, Method: FLUCTUATION (MICROTITER)): inactive; negative | mutagenic call (Test System: AMES SALMONELLA TYPHIMURIUM, Strain/Indicator: TA7003, Metabolic Activation: NONE, Method: FLUCTUATION (MICROTITER)): inactive; negative | mutagenic call (Test System: AMES SALMONELLA TYPHIMURIUM, Strain/Indicator: TA7003, Metabolic Activation: RAT LIVER S-9, AROCLOR 1254, Method: FLUCTUATION (MICROTITER)): inactive; negative | mutagenic call (Test System: AMES SALMONELLA TYPHIMURIUM, Strain/Indicator: TA7004, Metabolic Activation: NONE, Method: FLUCTUATION (MICROTITER)): active; positive | mutagenic call (Test System: AMES SALMONELLA TYPHIMURIUM, Strain/Indicator: TA7004, Metabolic Activation: RAT LIVER S-9, AROCLOR 1254, Method: FLUCTUATION (MICROTITER)): active; positive | mutagenic call (Test System: AMES SALMONELLA TYPHIMURIUM, Strain/Indicator: TA7005, Metabolic Activation: NONE, Method: FLUCTUATION (MICROTITER)): active; positive | mutagenic call (Test System: AMES SALMONELLA TYPHIMURIUM, Strain/Indicator: TA7005, Metabolic Activation: RAT LIVER S-9, AROCLOR 1254, Method: FLUCTUATION (MICROTITER)): active; positive | mutagenic call (Test System: AMES SALMONELLA TYPHIMURIUM, Strain/Indicator: TA7006, Metabolic Activation: NONE, Method: FLUCTUATION (MICROTITER)): active; positive | mutagenic call (Test System: AMES SALMONELLA TYPHIMURIUM, Strain/Indicator: TA7006, Metabolic Activation: RAT LIVER S-9, AROCLOR 1254, Method: FLUCTUATION (MICROTITER)): active; positive | mutagenic call (Test System: E. COLI, Strain/Indicator: WP2 (PKM101), Metabolic Activation: NONE, Method: STANDARD PLATE): active; positive | mutagenic call (Test System: E. COLI, Strain/Indicator: WP2 UVRA (PKM101), Metabolic Activation: NONE, Method: STANDARD PLATE): active; positive

CC(=O)O[C@H]1[C@H](OC23C=C(C)C4(CC4)C(C)(O)C2C(=O)C(C)(C)C3)O[C@H](CO)[C@@H](OC(=O)/C=C/c2ccc(O)cc2)[C@@H]1O (stereo partly specified)
mutagenic call (Test System: AMES SALMONELLA TYPHIMURIUM, Strain/Indicator: TA98, Metabolic Activation: NONE, Method: PREINCUBATION): active; positive | mutagenic call (Test System: AMES SALMONELLA TYPHIMURIUM, Strain/Indicator: TA100, Metabolic Activation: NONE, Method: PREINCUBATION): active; positive

O=[N+]([O-])c1ccc(OC2CO2)cc1 (stereo unspecified)
mutagenic call [1]: active; positive | mutagenic call [2]: active; positive

O=[N+]([O-])c1cc(Cl)cc(Sc2cc(Cl)cc([N+](=O)[O-])c2O)c1O
mutagenic call (Test System: AMES SALMONELLA TYPHIMURIUM, Strain/Indicator: TA98, Metabolic Activation: NONE, Method: STANDARD PLATE): inactive; negative | mutagenic call (Test System: AMES SALMONELLA TYPHIMURIUM, Strain/Indicator: TA98, Metabolic Activation: RAT, LIVER, S-9, KANECHLOR 400, Method: STANDARD PLATE): inactive; negative | mutagenic call [1]: inactive; negative | mutagenic call (Test System: AMES SALMONELLA TYPHIMURIUM, Strain/Indicator: TA100, Metabolic Activation: RAT, LIVER, S-9, KANECHLOR 400, Method: STANDARD PLATE): inactive; negative | mutagenic call [2]: inactive; negative | mutagenic call (Test System: AMES SALMONELLA TYPHIMURIUM, Strain/Indicator: TA1535, Metabolic Activation: RAT, LIVER, S-9, KANECHLOR 400, Method: STANDARD PLATE): inactive; negative | mutagenic call (Test System: AMES SALMONELLA TYPHIMURIUM, Strain/Indicator: TA1537, Metabolic Activation: NONE, Method: STANDARD PLATE): inactive; negative | mutagenic call (Test System: AMES SALMONELLA TYPHIMURIUM, Strain/Indicator: TA1537, Metabolic Activation: RAT, LIVER, S-9, KANECHLOR 400, Method: STANDARD PLATE): inactive; negative | mutagenic call (Test System: AMES SALMONELLA TYPHIMURIUM, Strain/Indicator: TA1538, Metabolic Activation: NONE, Method: STANDARD PLATE): inactive; negative | mutagenic call (Test System: AMES SALMONELLA TYPHIMURIUM, Strain/Indicator: TA1538, Metabolic Activation: RAT, LIVER, S-9, KANECHLOR 400, Method: STANDARD PLATE): inactive; negative

COc1ccc(CNC(=O)C(C)Br)cc1 (stereo unspecified)
mutagenic call [1]: active; positive

O=C(O)C[C@H](NC(=O)COc1ccc(Cl)cc1Cl)C(=O)O
mutagenic call (Test System: AMES SALMONELLA TYPHIMURIUM, Strain/Indicator: TA97, Metabolic Activation: RAT, LIVER, S-9, AROCLOR 1254, Method: STANDARD PLATE): inactive; negative | mutagenic call (Test System: AMES SALMONELLA TYPHIMURIUM, Strain/Indicator: TA97, Metabolic Activation: WOODCHUCK, LIVER, S-9, 3-METHYLCHOLANTHRENE, Method: STANDARD PLATE): inactive; negative | mutagenic call (Test System: AMES SALMONELLA TYPHIMURIUM, Strain/Indicator: TA98, Metabolic Activation: RAT, LIVER, S-9, AROCLOR 1254, Method: STANDARD PLATE): inactive; negative | mutagenic call (Test System: AMES SALMONELLA TYPHIMURIUM, Strain/Indicator: TA98, Metabolic Activation: WOODCHUCK, LIVER, S-9, 3-METHYLCHOLANTHRENE, Method: STANDARD PLATE): inactive; negative | mutagenic call (Test System: AMES SALMONELLA TYPHIMURIUM, Strain/Indicator: TA100, Metabolic Activation: RAT, LIVER, S-9, AROCLOR 1254, Method: STANDARD PLATE): inactive; negative | mutagenic call (Test System: AMES SALMONELLA TYPHIMURIUM, Strain/Indicator: TA100, Metabolic Activation: WOODCHUCK, LIVER, S-9, 3-METHYLCHOLANTHRENE, Method: STANDARD PLATE): inactive; negative | mutagenic call (Test System: AMES SALMONELLA TYPHIMURIUM, Strain/Indicator: TA1535, Metabolic Activation: RAT, LIVER, S-9, AROCLOR 1254, Method: STANDARD PLATE): inactive; negative | mutagenic call (Test System: AMES SALMONELLA TYPHIMURIUM, Strain/Indicator: TA1535, Metabolic Activation: WOODCHUCK, LIVER, S-9, 3-METHYLCHOLANTHRENE, Method: STANDARD PLATE): inactive; negative | mutagenic call (Test System: AMES SALMONELLA TYPHIMURIUM, Strain/Indicator: TA1538, Metabolic Activation: RAT, LIVER, S-9, AROCLOR 1254, Method: STANDARD PLATE): inactive; negative | mutagenic call (Test System: AMES SALMONELLA TYPHIMURIUM, Strain/Indicator: TA1538, Metabolic Activation: WOODCHUCK, LIVER, S-9, 3-METHYLCHOLANTHRENE, Method: STANDARD PLATE): inactive; negative
